From ChEMBL document CHEMBL1201862, “PubChem BioAssay data set” (2004)
Calls of active or inactive are those of the source.

Assays:
[1] = biological target: Mu-type opioid receptor (Homo sapiens, UniProt P35372); assay: Counterscreen for agonists of heterodimerization of the mu 1 (OPRM1) and delta 1 (OPRD1) opioid receptors: Luminescence-based cell-based high throughput dose response assay to identify agonists of OPRM1 homodimerization.; format: functional;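 note: U2OS cells expressing OPRM1 and beta-arrestin as split beta-galactosidase partners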
[2] = biological target: T1, Short transient receptor potential channel 4 (Mus musculus, UniProt Q9QUQ5); assay: calcium entry via TRPC4 opening agents – cell-based, HEK293 TRPC4/mu-opioid, Fluo-4 calcium, dose response (AID 434937); format: functional
T1 sequence (Q9QUQ5 whole entry): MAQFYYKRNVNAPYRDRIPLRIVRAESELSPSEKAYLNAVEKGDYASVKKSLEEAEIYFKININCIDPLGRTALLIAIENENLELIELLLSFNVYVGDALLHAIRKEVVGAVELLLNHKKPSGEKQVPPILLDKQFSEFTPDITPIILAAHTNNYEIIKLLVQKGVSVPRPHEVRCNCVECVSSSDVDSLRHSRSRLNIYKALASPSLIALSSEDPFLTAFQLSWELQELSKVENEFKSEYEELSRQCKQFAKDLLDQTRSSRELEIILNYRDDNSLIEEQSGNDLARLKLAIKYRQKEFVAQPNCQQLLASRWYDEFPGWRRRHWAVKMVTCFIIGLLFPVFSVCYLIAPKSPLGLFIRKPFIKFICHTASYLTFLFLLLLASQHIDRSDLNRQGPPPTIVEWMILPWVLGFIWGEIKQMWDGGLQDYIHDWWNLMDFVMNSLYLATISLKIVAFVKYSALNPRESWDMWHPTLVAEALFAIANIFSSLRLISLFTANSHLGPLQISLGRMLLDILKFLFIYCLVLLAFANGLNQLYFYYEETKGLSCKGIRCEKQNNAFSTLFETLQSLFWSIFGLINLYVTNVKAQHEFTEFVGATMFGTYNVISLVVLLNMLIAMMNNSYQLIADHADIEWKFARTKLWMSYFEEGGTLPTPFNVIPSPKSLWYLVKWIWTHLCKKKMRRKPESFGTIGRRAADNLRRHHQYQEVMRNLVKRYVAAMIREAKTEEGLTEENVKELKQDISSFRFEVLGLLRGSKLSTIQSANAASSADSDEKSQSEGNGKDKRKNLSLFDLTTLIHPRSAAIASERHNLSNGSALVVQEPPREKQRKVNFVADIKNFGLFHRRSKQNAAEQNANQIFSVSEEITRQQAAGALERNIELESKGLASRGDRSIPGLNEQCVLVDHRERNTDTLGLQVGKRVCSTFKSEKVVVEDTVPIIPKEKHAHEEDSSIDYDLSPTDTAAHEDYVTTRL

[3] = biological target: 5-hydroxytryptamine receptor 5A (Homo sapiens, UniProt P47898); assay: Counterscreen for agonists of OPRM1-OPRD1 heterodimerization: luminescence-based cell-based high throughput dose response assay to identify agonists of 5-hydroxytryptamine (serotonin) 5A receptor (HTR5A). [Related pubchem assays (depositor defined):AID504326, AID504355, AID504692, AID504904, AID504905]; format: functional
[4] = biological target: Delta-type opioid receptor (Homo sapiens, UniProt P41143); assay: Counterscreen for agonists of heterodimerization of the mu 1 (OPRM1) and delta 1 (OPRD1) opioid receptors: Luminescence-based cell-based high throughput dose response assay to identify agonists of OPRD1 homodimerization. [Related pubchem assays (depositor defined):AID504326, AID504355, AID504692, AID504904, AID504905]; format: functional
[5] = biological target: CAAX prenyl protease 2 (Homo sapiens, UniProt Q9Y256); assay: inhibition of Ras-converting CAAX protease Rce1 – biochemical, yeast membranes, quenched-peptide fluorescence, cherry-pick, dose response (AID 588849)
[6] = biological target: CAAX prenyl protease 1 (Saccharomyces cerevisiae S288c, UniProt P47154); assay: yeast CAAX protease Ste24 inhibition – biochemical, S. cerevisiae, plate reader, cherry-pick, dose response (AID 488815)
[7] = biological target: T2, Serine/threonine-protein phosphatase (Candida dubliniensis (strain CD36 / CBS 7987 / NCPF 3949 / NRRLY-17841) (Yeast), UniProt B9W6M3); assay: blockers of CaCl2-induced CDRE-lacZ signaling – S. cerevisiae, luminescence, secondary, dose response (AID 2388); format: functional, cell-based;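 note: yeast reporter cells carrying a calcineurin-responsive lacZ construct stimulated with calcium chloride; luminescent beta-galactosidase reporter signal in whole cells rather than isolated phosphatase activity; potency for inhibition where a drop in reporter signal means calcineurin blockade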
T2 sequence (B9W6M3 whole entry): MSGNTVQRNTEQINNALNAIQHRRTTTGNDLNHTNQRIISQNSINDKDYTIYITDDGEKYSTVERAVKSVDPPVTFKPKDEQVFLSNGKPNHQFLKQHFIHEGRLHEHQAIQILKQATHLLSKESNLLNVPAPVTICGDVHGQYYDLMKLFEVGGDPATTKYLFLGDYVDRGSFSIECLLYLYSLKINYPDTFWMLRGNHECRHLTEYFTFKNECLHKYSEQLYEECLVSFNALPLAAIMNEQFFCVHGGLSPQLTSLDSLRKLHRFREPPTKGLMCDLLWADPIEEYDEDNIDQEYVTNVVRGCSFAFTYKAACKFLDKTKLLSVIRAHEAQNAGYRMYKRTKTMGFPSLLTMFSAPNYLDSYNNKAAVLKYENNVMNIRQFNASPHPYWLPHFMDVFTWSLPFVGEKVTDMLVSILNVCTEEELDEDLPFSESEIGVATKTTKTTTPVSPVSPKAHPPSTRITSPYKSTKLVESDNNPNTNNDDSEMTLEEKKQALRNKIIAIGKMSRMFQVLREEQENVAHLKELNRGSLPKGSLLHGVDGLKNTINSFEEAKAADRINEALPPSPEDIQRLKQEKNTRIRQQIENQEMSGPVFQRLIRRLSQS

[8] = NIH-3T3 fibroblast cytotoxicity, dose response, cytotoxicity control, cell-based, fluorescence, Alamar Blue, secondary assay (AID 2327); format: functional;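 note: NIH-3T3 mouse fibroblasts cultured with fluconazole at 8 µg/mL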
[9] = biological target: ATP-dependent molecular chaperone HSP82 (Candida albicans (strain WO-1) (Yeast), UniProt C4YTQ8); assay: steroid-induced GRE reporter decrease in yeast – S. cerevisiae, luminescence, Hsp90 inhibitor project, dose response (AID 2400); format: functional, cell-based;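 note: beta-galactosidase luminescence from glucocorticoid response element reporter as proxy for Hsp90 function; inhibitor potency where signal loss means Hsp90 inhibition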
[10] = fluconazole-exposed Candida albicans growth modulators – fluorescence, retest, confirmation (AID 2467); format: functional, cell-based
[11] = biological target: Phospholipase A2 (Homo sapiens, UniProt P04054); format: functional;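 note: confirmatory dose-response counterscreen on phospholipase A2, testing hits that came from an ultra-high-throughput screen for ATG4B inhibitors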
[12] = system: Streptococcus; assay: GAS UMAA2166 growth inhibition – luminescence, BacTiterGlo, counter-screen for streptokinase expression inhibitor project, dose response (AID 1915); format: functional, organism-based;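 note: potency for reduction of bacterial viability or growth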
[13] = system: BJ; assay: growth inhibition of engineered Ras-driven BJ cells – cell-based, alamar blue fluorescence, cherrypicked samples, dose response (AID 2631); format: functional; details: Homo sapiens;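 note: confirmatory dose-response assay in RAS-dependent BJ fibroblasts engineered with TERT, LT and ST, with cytotoxicity read by fluorescence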
[14] = biological target: T3, Cysteine protease ATG4B (Homo sapiens, UniProt Q9Y4P1); format: functional;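 note: Fluorescence-based dose-response confirmation assay measuring inhibition of ATG4B activity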
T3 sequence (Q9Y4P1 whole entry): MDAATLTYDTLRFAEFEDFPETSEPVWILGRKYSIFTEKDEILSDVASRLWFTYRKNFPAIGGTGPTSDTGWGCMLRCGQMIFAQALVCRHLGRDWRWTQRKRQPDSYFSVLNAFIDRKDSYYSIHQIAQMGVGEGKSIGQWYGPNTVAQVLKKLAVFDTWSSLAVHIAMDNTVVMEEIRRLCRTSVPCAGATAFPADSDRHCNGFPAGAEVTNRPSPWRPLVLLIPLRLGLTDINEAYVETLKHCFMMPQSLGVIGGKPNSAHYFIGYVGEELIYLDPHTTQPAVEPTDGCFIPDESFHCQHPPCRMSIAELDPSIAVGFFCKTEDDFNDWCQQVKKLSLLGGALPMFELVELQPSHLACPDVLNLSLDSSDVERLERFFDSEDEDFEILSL

[15] = system: Streptococcus sp. 'group A'; assay: Streptococcus pyogenes SK(-)GAS viability under kanamycin – luminescence, BacTiterGlo, confirmation, counter-screen for streptokinase expression inhibitor project, dose response (AID 1900); format: functional, organism-based
[16] = biological target: Cyclin-dependent kinase 5/CDK5 activator 1 (Homo sapiens, UniProt Q00535); assay: blockade of human CDK5 activity – biochemical, cherry-picked samples, set 2, dose response (AID 504545)
[17] = biological target: Beta-arrestin-1 (Homo sapiens, UniProt P49407); assay: beta-arrestin/AP2 interaction blockers, potency – biochemical, cherry pick 1, beta2-adaptin appendage, flow cytometry, dose response (AID 588783); format: functional
[18] = system: BJ; assay: BJ-TERT-LT-ST fibroblast viability loss – cell-based, RAS-independent, luminescence, dose response (AID 1935); format: functional; details: Homo sapiens;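 note: BJ fibroblasts immortalized with TERT plus LT and ST oncogenes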
[19] = HEK-293T viability loss after treatment – luminescence, T-cell screen hits, cytotoxicity control for TCR NF-kB inhibitor project, dose response (AID 489026); format: functional, cell-based;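 note: cells exposed to compound about 14 hours before the viability readout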
[20] = DRD fibroblast viability loss – cell-based, non-viral oncogenic, luminescence, dose response (AID 1934); format: functional; details: Homo sapiens
[21] = system: BJ; assay: cells; format: functional, cell-based; details: Homo sapiens
[22] = Luminescence Cell-Based Dose Response HTS to Identify Inhibitors of 5'UTR Stem-Loop Driven Prion Protein mRNA Translation in H4 Neuroglioblastoma Cells. [Related pubchem assays: 1827 (Project Summary), 1813 (Primary HTS)]; format: functional
[23] = biological target: T4, Apoptotic protease-activating factor 1 (Homo sapiens, UniProt O14727); format: functional
T4 sequence (O14727 whole entry): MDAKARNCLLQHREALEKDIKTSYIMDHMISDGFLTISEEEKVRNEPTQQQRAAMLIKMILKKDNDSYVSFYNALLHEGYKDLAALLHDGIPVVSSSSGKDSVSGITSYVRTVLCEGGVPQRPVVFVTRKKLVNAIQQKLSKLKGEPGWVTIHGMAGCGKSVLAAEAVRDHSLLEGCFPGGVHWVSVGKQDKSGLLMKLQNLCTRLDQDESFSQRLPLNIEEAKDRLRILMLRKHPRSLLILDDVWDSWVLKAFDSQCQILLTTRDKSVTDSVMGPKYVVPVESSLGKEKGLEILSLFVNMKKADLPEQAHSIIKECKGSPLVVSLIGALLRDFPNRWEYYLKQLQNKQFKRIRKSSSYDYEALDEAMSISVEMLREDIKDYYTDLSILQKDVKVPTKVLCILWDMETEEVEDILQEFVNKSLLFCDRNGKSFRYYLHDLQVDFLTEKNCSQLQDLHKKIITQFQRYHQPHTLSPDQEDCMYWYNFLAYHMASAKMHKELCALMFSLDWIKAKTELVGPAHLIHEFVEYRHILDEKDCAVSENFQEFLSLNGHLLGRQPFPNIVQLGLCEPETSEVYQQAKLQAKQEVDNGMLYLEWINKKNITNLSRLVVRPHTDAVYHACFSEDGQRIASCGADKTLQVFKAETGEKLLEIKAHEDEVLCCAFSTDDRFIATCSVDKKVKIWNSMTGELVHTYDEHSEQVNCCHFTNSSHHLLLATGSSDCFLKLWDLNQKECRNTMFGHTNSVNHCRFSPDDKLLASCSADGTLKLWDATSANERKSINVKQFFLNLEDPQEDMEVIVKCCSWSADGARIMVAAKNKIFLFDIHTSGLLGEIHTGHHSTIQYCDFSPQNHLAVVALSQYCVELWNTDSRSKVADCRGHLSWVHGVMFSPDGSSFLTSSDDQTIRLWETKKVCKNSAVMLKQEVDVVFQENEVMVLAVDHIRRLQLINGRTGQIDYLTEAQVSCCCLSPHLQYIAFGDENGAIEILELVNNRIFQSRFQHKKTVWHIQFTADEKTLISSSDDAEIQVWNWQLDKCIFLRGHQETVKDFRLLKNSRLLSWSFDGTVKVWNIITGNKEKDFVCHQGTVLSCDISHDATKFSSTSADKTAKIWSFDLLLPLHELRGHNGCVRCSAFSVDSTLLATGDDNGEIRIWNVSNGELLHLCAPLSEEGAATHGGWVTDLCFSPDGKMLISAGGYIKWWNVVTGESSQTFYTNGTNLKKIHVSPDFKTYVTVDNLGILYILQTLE

[24] = biological target: Nonstructural protein 1 (Influenza A virus, UniProt Q194T2); format: functional, Influenza A virus (A/California/07/2009(H1N1))
[25] = biological target: G-protein coupled receptor 35 (Homo sapiens, UniProt Q9HC97); assay: inhibition of zaprinast-stimulated GPR35 beta-arrestin translocation – imaging, U2OS, beta-arrestin-GFP, zaprinast agonist, primary screen (AID 2058); format: functional;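 note: antagonist potency meaning inhibition of agonist-induced arrestin redistribution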
[26] = luciferase reporter signal suppression in cells – H4 neuroglioma cells, luminescence, dose response (AID 1990); format: functional, cell-based
[27] = system: BJ; assay: BJ-TERT fibroblast viability loss – cell-based, RAS-independent, luminescence, dose response (AID 1933); format: functional; details: Homo sapiens

Sequence of Nonstructural protein 1 (Q194T2 whole entry): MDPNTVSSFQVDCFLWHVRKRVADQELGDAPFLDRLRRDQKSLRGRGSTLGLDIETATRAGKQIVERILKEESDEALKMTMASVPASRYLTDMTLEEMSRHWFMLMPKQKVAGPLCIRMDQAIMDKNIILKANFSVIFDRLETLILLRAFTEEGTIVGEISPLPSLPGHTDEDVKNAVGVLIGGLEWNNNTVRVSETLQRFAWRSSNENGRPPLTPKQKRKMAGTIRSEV
Sequence of G-protein coupled receptor 35 (Q9HC97 whole entry): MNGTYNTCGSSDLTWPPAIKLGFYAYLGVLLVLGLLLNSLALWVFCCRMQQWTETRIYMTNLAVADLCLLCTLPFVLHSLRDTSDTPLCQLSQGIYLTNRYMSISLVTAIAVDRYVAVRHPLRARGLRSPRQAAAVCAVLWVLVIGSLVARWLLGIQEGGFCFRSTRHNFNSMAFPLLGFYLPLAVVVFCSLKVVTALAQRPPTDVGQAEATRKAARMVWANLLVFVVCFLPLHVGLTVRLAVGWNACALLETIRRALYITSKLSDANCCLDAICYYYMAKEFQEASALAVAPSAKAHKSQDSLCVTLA
Sequence of 5-hydroxytryptamine receptor 5A (P47898 whole entry): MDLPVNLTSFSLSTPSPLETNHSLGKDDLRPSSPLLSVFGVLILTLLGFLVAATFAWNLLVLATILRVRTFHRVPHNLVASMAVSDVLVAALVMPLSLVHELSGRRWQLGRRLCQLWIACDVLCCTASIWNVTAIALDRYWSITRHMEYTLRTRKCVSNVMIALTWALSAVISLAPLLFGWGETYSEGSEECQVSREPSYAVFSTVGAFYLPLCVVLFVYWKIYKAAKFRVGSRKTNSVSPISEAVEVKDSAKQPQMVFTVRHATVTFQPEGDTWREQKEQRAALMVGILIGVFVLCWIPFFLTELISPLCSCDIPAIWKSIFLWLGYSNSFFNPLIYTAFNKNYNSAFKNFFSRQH
Sequence of Beta-arrestin-1 (P49407 whole entry): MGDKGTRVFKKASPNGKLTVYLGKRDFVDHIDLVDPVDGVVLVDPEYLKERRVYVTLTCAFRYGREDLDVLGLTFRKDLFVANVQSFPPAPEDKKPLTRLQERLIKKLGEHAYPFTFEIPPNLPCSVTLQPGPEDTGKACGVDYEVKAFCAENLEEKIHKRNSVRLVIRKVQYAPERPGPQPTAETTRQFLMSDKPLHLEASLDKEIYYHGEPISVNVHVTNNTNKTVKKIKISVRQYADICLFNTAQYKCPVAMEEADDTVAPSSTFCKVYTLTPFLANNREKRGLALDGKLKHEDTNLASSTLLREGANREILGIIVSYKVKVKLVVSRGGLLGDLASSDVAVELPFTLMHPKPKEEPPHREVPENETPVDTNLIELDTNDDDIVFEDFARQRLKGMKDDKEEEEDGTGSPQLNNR
Sequence of Delta-type opioid receptor (P41143 whole entry): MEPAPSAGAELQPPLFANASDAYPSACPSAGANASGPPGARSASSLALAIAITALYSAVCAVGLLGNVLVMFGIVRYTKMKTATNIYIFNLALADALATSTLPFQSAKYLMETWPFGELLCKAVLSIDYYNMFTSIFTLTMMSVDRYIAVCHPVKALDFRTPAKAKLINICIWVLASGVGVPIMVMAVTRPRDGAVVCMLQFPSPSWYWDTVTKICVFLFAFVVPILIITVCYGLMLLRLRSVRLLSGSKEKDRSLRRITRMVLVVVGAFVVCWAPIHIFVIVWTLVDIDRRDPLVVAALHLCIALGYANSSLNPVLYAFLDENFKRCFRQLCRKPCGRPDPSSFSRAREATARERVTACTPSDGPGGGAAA
Sequence of CAAX prenyl protease 1 (P47154 whole entry): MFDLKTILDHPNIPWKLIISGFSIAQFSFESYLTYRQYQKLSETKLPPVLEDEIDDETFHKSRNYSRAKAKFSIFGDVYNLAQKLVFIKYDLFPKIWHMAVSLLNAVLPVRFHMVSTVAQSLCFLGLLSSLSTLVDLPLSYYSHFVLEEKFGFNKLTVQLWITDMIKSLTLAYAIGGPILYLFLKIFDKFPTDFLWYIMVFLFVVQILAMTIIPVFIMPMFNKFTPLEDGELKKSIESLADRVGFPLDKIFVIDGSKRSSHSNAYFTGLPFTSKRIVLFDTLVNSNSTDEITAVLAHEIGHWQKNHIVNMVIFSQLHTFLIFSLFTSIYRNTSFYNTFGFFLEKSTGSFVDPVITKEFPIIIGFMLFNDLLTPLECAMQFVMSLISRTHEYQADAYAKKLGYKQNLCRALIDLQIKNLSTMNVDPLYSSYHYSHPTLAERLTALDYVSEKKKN
Sequence of Cyclin-dependent kinase 5/CDK5 activator 1 (Q00535 whole entry): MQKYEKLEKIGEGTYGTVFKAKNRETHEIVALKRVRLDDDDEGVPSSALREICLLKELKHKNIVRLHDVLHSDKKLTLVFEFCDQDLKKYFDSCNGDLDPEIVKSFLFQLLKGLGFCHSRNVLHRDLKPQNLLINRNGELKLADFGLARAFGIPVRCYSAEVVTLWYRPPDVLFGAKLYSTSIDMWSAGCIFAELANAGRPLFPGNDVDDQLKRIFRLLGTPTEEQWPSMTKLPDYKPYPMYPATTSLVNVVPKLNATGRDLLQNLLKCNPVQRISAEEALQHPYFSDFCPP
Sequence of Cyclin-dependent kinase 5/CDK5 activator 1 (Q15078 whole entry, further chain): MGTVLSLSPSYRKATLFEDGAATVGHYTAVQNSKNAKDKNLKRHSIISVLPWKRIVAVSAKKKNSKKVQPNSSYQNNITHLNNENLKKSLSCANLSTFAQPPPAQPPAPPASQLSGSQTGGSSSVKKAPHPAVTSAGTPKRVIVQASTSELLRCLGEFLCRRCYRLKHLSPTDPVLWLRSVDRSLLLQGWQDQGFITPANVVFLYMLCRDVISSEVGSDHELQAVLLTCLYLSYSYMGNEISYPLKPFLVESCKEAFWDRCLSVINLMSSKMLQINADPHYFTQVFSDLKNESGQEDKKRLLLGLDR
Sequence of Mu-type opioid receptor (P35372 whole entry): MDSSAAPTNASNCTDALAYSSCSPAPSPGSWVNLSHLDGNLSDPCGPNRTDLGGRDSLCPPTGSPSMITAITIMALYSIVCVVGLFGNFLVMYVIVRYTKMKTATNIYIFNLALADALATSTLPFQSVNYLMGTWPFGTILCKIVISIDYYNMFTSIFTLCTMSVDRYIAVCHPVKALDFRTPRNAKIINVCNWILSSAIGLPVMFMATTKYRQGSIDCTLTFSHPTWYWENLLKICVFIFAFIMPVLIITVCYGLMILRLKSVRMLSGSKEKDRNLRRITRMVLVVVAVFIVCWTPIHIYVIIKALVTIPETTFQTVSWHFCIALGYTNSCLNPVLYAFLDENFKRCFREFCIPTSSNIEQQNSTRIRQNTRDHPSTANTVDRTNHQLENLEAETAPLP
Sequence of Phospholipase A2 (P04054 whole entry): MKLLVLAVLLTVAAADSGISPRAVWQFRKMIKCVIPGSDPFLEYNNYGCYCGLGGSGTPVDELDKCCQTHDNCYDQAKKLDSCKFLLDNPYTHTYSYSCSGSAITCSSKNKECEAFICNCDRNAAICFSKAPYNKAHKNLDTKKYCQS
Sequence of CAAX prenyl protease 2 (Q9Y256 whole entry): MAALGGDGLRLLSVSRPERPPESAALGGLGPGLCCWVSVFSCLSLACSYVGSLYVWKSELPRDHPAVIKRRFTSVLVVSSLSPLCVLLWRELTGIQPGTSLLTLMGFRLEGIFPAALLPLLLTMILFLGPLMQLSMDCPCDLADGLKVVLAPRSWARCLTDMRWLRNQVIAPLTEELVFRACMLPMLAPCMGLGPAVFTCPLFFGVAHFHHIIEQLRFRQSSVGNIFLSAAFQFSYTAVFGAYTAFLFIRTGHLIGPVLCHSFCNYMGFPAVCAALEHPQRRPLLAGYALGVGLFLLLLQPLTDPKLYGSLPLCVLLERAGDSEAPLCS
Sequence of ATP-dependent molecular chaperone HSP82 (C4YTQ8 whole entry): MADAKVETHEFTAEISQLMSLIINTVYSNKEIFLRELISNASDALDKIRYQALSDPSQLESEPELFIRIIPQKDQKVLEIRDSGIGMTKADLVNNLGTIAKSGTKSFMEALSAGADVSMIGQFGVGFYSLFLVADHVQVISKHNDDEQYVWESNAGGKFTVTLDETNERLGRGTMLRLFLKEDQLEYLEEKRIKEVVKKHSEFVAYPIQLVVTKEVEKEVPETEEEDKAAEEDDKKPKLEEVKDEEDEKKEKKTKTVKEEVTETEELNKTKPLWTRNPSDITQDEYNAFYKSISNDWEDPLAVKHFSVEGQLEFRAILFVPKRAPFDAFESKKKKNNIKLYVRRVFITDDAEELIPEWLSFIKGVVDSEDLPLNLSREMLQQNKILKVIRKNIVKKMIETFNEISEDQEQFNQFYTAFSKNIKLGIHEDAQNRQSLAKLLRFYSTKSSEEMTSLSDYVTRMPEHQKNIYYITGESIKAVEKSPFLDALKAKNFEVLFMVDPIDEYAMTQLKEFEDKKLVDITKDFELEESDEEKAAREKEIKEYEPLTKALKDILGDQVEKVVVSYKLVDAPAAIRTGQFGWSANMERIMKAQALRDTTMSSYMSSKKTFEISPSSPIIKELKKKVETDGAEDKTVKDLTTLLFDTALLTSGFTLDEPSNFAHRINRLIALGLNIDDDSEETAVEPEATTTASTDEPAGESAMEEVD

Cc1ccccc1N(CC(=O)N/N=C/c1ccc(F)cc1)C(=O)c1ccccc1
EC50 [1]: > 92.5 µM (inactive) | EC50 [2]: 2.11 µM (active) | EC50 [3]: > 92.5 µM (inactive) | EC50 [4]: > 92.5 µM (inactive)

CC1CCCC(/C=N/c2ccccc2C(=O)O)=C1O (configuration not stated)
AC50 [5]: 11.6 µM (active) | AC50 [6]: 4.3 µM (active)

CCN1/C(=C/C(C)=C/c2sc3ccccc3[n+]2CC)Sc2ccccc21
EC50 [7]: > 180 µM (inactive) | EC50 [8]: 77.7 µM (active) | EC50 [9]: 18.3 µM (active) | EC50 [10]: 0.051 µM (active) | IC50 [11]: 7.86 µM (active) | EC50 [12]: 2.74 µM (active) | EC50 [13]: 1.74 µM (active) | IC50 [14]: 8.62 µM (active) | EC50 [15]: 2.15 µM (active) | AC50 [16]: 41.1 µM (active) | IC50 [17]: 2.2 µM (active) | EC50 [18]: 5.48 µM (inconclusive) | IC50 [19]: 64.4 µM (inactive) | EC50 [20]: 6.17 µM (active) | EC50 [21]: 6.01 µM (active) | EC50 [22]: 1.68 µM (active) | IC50 [23]: 19.4 µM (active) | IC50 [24]: 5.7 µM (active) | IC50 [25]: 1.01 µM (active) | EC50 [26]: < 0.1 µM (active) | EC50 [27]: 4.56 µM (active)
